This is an account of results in ChEMBL document CHEMBL2073968, “Multidrug resistance protein 4 (MRP4/ABCC4) mediates efflux of bimane-glutathione” (Int J Biochem Cell Biol, 2004).

The target of data set [1] is T1, ATP-binding cassette sub-family C member 4 (Homo sapiens, UniProt O15439).
T1 sequence (O15439 whole entry): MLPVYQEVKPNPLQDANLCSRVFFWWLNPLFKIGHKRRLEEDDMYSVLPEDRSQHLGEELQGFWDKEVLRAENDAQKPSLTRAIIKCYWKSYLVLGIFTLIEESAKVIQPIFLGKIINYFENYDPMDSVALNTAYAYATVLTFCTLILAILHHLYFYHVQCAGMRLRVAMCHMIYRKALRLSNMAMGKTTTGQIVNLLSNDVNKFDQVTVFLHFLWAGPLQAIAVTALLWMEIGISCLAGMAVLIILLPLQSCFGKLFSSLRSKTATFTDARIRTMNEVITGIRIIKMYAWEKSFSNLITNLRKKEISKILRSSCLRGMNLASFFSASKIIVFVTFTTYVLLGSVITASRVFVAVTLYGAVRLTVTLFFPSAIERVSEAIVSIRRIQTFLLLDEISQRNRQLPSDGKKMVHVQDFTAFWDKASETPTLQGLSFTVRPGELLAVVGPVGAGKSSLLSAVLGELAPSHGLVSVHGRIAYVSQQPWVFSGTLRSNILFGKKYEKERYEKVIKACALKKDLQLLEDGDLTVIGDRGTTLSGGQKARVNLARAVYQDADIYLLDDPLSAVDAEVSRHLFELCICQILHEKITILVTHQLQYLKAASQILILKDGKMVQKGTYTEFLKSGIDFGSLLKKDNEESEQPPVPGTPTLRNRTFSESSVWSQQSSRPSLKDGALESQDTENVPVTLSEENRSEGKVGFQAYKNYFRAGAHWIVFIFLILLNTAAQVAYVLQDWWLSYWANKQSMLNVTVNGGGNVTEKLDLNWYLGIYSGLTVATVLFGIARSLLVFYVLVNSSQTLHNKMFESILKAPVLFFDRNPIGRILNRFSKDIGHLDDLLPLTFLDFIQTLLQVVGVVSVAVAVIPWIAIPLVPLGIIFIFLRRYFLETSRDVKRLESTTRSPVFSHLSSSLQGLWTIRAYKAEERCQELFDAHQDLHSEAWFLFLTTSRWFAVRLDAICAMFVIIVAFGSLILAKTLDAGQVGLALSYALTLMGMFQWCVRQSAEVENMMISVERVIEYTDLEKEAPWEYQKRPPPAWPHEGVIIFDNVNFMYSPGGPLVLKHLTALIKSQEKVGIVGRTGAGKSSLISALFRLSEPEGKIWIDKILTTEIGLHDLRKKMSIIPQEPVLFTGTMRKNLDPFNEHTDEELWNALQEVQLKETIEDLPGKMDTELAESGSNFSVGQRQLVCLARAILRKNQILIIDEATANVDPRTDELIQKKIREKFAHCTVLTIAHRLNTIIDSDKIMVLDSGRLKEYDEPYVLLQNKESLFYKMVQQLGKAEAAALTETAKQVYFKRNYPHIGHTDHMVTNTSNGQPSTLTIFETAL
Put plainly: TP_TRANSPORTER: inhibition of bimane-GS efflux in the presence of 1-chloro-2,4-dinitrobenzen(2,4-dinitrophenyl-glutathione) at a concentration of 100uM in MRP4-expressing HepG2 cells. It is filed as functional, cell-based. The arrangement: scale not given: the % may be the effect or the level left. The settings on record: hepg2, 100 µM.

The target of data set [2] is T1, ATP-binding cassette sub-family C member 4. As to the kind of experiment: TP_TRANSPORTER: inhibition of bimane-GS efflux in the presence of Benzbromarone at a concentration of 5uM in MRP4-expressing HepG2 cells. In kind it is functional, cell-based. Also noted: scale not given: the % may be the effect or the level left. The settings on record: hepg2, 5 µM.
Data set [3] shares this target. As to the kind of experiment: TP_TRANSPORTER: efflux in MRP4-expressing HepG2 cells. It is filed as functional, cell-based.
Data set [4] has the same target. As to the kind of experiment: TP_TRANSPORTER: inhibition of bimane-GS efflux in the presence of Indomethacin at a concentration of 50uM in MRP4-expressing HepG2 cells. In kind it is functional, cell-based. Also noted: scale not given: the % may be the effect or the level left. The settings on record: hepg2, 50 µM.
The target of data set [5] is T2, MRP4 (ATP-binding cassette sub-family C member 4) (Homo sapiens, UniProt O15439).
T2 sequence (O15439 whole entry): T1 sequence (O15439 whole entry)
Put plainly: TP_TRANSPORTER: inhibition of bimane-GS efflux in the presence of Methotrexate at a concentration of 100uM in MRP4-expressing HepG2 cells. It is filed as functional, cell-based. The arrangement: scale not given: the % may be the effect or the level left. The settings on record: probe bimane-GS, read-out: Activity.

Data set [6] addresses T1, ATP-binding cassette sub-family C member 4. As to the kind of experiment: TP_TRANSPORTER: inhibition of E217betaG uptake in membrane vesicles from MRP4-expressing Sf9 cells. In kind it is functional, cell membranes, Membrane vesicle.
The target in data set [7] is T2, MRP4 (ATP-binding cassette sub-family C member 4). Put plainly: TP_TRANSPORTER: inhibition of bimane-GS efflux in the presence of 6-thioguanine at a concentration of 100uM in MRP4-expressing HepG2 cells. It is filed as functional, cell-based. Also noted: scale not given: the % may be the effect or the level left. The settings on record: probe bimane-GS, read-out: Activity.

Regarding `NC(CCC(=O)NC(CSc1ccc([N+](=O)[O-])cc1[N+](=O)[O-])C(=O)NCC(=O)O)C(=O)O.O=[N+]([O-])c1ccc(Cl)c([N+](=O)[O-])c1` (configuration not stated), the Activity in data set [1] came to 27%. Take `CCc1oc2ccccc2c1C(=O)c1cc(Br)c(O)c(Br)c1` [BENZBROMARONE]: the Activity in data set [2] is on record as 60%. On to `Cc1c(C)n2c(CSC[C@H](NC(=O)CC[C@H](N)C(=O)O)C(=O)CNC(=O)O)c(C)c(=O)n2c1=O` [Bimane-glutathione], for which, in data set [3], the Activity entry is “substrate []”. With `COc1ccc2c(c1)c(CC(=O)O)c(C)n2C(=O)c1ccc(Cl)cc1` [INDOMETHACIN], the Activity in data set [4] is reported as 74%. Consider `CN(Cc1cnc2nc(N)nc(N)c2n1)c1ccc(C(=O)N[C@@H](CCC(=O)O)C(=O)O)cc1` [METHOTREXATE], for which the activity at 100 µM in data set [5] came to 53%.

Turning to `C[C@]12CC[C@H](OS(=O)(=O)O)CC1=CC[C@@H]1[C@@H]2CC[C@]2(C)C(=O)CC[C@@H]12` [PRASTERONE SULFURIC ACID], in data set [6], the IC50 came to 3 µM. With `Nc1nc2nc[nH]c2c(=S)[nH]1` [THIOGUANINE], in data set [7], the activity at 100 µM is 53%.

By IC50 is commonly meant the concentration that inhibits the measured activity by half.
